{"source": "patent US20130034522A1", "about": "“THERAPIES FOR TREATING HEPATITIS C VIRUS INFECTION” (priority 2010, published 2013)", "key": {"[1]": {"assay": "Study VX-222-002: combination treatment with VX-222 and VX-950 in healthy subjects (PK, safety)", "conditions": "for AUC(0-t) / Cmax / half-life: human, plasma, oral; for AUC(0-t) / Cmax: geometric mean (CV %)"}, "[2]": {"test_system": "genotype 1 HCV", "assay": "Study VX-222-102 Part A: plasma HCV RNA reduction", "type": "in vivo, Hepatitis C virus", "procedure": "(§1) In Part A of Study 102 subjects were randomized to VX-222 or placebo in a 6:2 (VX-222: placebo) allocation ratio to either Cohort 1, Cohort 2, Cohort 3, or Cohort 4. Subjects enrolled in Cohort 1, Cohort 2, and Cohort 3 were administered 250 mg, 500 mf, or 750 mg VX-222 or placebo twice daily (b.i.d.) for 3 days, respectively. Subjects enrolled in Cohort 4 were administered 1,500 mg VX-222 or placebo once daily (qd) for 3 days. Standard of care treatment, Peg-IFN-alpha-2a and RBV was offered to the subjects at the end of dosing in Part A for up to 48 weeks, if judged appropriate by the physician.\n(§2) Additional results of Study VX-222-102 are described in FIGS. 2-8: Thirty-two treatment-naïve patients with chronic genotype 1 HCV infection were enrolled in the trial, including six patients in each dose group who received 250 mg of VX-222 BID, 500 mg of VX-222 BID, 750 mg of VX-222 BID, and 1,500 mg of VX-222 QD. Two patients received placebo in each of the four dosing groups, for a total of eight patients who received placebo. Part A of the trial was conducted at 10 centers in the United States, Canada and Argentina. Of the patients enrolled in the trial, 24 patients had genotype 1a HCV infection and eight patients had genotype 1b HCV infection. Six of the patients enrolled in the trial were African American, 25 were Caucasian and one was American Indian/Alaskan.\n(§3) Multicenter, randomized, double-blinded, placebo-controlled, dose-ranging study • HCV genotype 1-infected patients • With no evidence of cirrhosis • ALT values <5×ULM • Plasma HCV RNA of >5 log10 IU/mL at screening • 4-arm comparative study (6:2 randomization VX-222: placebo) • Enrollment in this dosing—ranging study was sequential • 250 mg BID for 3 days • 500 mg BID for 3 days • 750 mg BID for 3 days • 1500 mg QD for 3 days."}, "[3]": {"assay": "Study VX-222-102 Part A: VX-222 for 3 days in HCV infected subjects (PK, safety)", "type": "in vivo, human", "conditions": "for AUC(0-t) / concentration at 12 h / Cmax / Tmax / half-life: human, in vivo; for AUC(0-t): read-out: AUC0-12 hr Geometric Mean; for concentration at 12 h: read-out: C12 Geometric Mean; for Cmax: read-out: Cmax Geometric Mean; for half-life: read-out: T1/2 Arithmetic Mean (converted)", "procedure": "as §1, §2, §3"}, "[4]": {"conditions": "VX-222 400 mg BID with VX-950 1125 mg BID, Day 37, healthy subjects, fed"}, "[5]": {"conditions": "all four dose groups, blinded pooled data placebo or VX-222"}, "[6]": {"conditions": "250 mg, 250 mg b.i.d., Day 1, HCV infected subjects"}, "[7]": {"conditions": "250 mg, 250 mg b.i.d., Day 3, HCV infected subjects"}, "[8]": {"conditions": "500 mg, 500 mg b.i.d., Day 1, HCV infected subjects"}, "[9]": {"conditions": "500 mg, 500 mg b.i.d., Day 3, HCV infected subjects"}, "[10]": {"conditions": "750 mg, 750 mg b.i.d., Day 1, HCV infected subjects"}, "[11]": {"conditions": "750 mg, 750 mg b.i.d., Day 3, HCV infected subjects"}}, "note": "Read-outs that look alike come from different tables or passages of the source."}
{"smiles": "CC1CCC(C(=O)N(c2cc(C#CC(C)(C)C)sc2C(=O)O)C2CCC(O)CC2)CC1", "note": "(stereo not drawn) [VX-222, 5-(3,3-Dimethylbut-1-ynyl)-3-[(trans-4-hydroxycyclohexyl)-(4-trans methylcyclohexanecarbonyl)amino]thiophene-2-carboxylic acid]", "values": [{"measurement": "Tmax", "setting": "[1]; [4]", "value": "4 [4,6] hr"}, {"measurement": "VX-222 plasma exposures", "setting": "[1]; co-administered with VX-950, healthy subjects", "value": "increased"}, {"measurement": "VX-222 administered with VX-950 versus VX-222 alone", "setting": "[1]; healthy subjects", "value": 2, "unit": "fold"}, {"measurement": "AUC(0-t)", "setting": "[1]; 400 mg, AUC0-12, VX-222 400 mg BID alone, Day 10, healthy subjects, fed", "value": 8560, "unit": "ng·h/mL"}, {"measurement": "Cmax", "setting": "[1]; 400 mg, VX-222 400 mg BID alone, Day 10, healthy subjects, fed", "value": 1770, "unit": "ng/mL"}, {"measurement": "half-life", "setting": "[1]; 400 mg, T1/2, VX-222 400 mg BID alone, Day 10, healthy subjects, fed", "value": 2.7, "unit": "h"}, {"measurement": "AUC(0-t)", "setting": "[1]; 1000 mg, AUC0-12, VX-222 1000 mg BID alone, Day 10, healthy subjects, fed", "value": 25800, "unit": "ng·h/mL"}, {"measurement": "Cmax", "setting": "[1]; 1000 mg, VX-222 1000 mg BID alone, Day 10, healthy subjects, fed", "value": 4120, "unit": "ng/mL"}, {"measurement": "half-life", "setting": "[1]; 1000 mg, T1/2, VX-222 1000 mg BID alone, Day 10, healthy subjects, fed", "value": 4, "unit": "h"}, {"measurement": "AUC(0-t)", "setting": "[1]; AUC0-12, VX-222 400 mg BID with VX-950 1125 mg BID, Day 37, healthy subjects, fed", "value": 29500, "unit": "ng·h/mL"}, {"measurement": "AUC(0-t)", "setting": "[1]; AUC0-12, VX-222 1000 mg BID with VX-950 1125 mg BID, Day 37, healthy subjects, fed", "value": 59900, "unit": "ng·h/mL"}, {"measurement": "Cmax", "setting": "[1]; [4]", "value": 3950, "unit": "ng/mL"}, {"measurement": "Cmax", "setting": "[1]; VX-222 1000 mg BID with VX-950 1125 mg BID, Day 37, healthy subjects, fed", "value": 8150, "unit": "ng/mL"}, {"measurement": "half-life", "setting": "[1]; T1/2, VX-222 400 mg BID with VX-950 1125 mg BID, Day 37, healthy subjects, fed", "value": 5.4, "unit": "h"}, {"measurement": "half-life", "setting": "[1]; T1/2, VX-222 1000 mg BID with VX-950 1125 mg BID, Day 37, healthy subjects, fed", "value": 3.5, "unit": "h"}, {"measurement": "mean HCV RNA decline after three days of dosing", "setting": "[2]; 250 mg BID", "value": 3.1, "unit": "log10"}, {"measurement": "Mean Viral Load Reduction at Day 4", "setting": "[2]; 250 mg b.i.d. for 3 days", "value": "−3.1"}, {"measurement": "mean HCV RNA decline after three days of dosing", "setting": "[2]; 500 mg BID", "value": 3.4, "unit": "log10"}, {"measurement": "Mean Viral Load Reduction at Day 4", "setting": "[2]; 500 mg b.i.d. for 3 days", "value": "−3.4"}, {"measurement": "mean HCV RNA decline after three days of dosing", "setting": "[2]; 750 mg BID", "value": 3.2, "unit": "log10"}, {"measurement": "Mean Viral Load Reduction at Day 4", "setting": "[2]; 750 mg b.i.d. for 3 days", "value": "−3.2"}, {"measurement": "mean HCV RNA decline after three days of dosing", "setting": "[2]; 1,500 mg QD", "value": 3.4, "unit": "log10"}, {"measurement": "Mean Viral Load Reduction at Day 4", "setting": "[2]; 1,500 mg QD for 3 days", "value": "−3.4"}, {"measurement": "mean log HCV RNA decrease on Day 4", "setting": "[2]; Cohort 1, 250 mg b.i.d.", "value": 3.1, "unit": "log"}, {"measurement": "mean log HCV RNA decrease on Day 4", "setting": "[2]; Cohort 2, 500 mg b.i.d.", "value": 3.4, "unit": "log"}, {"measurement": "mean log HCV RNA decrease on Day 4", "setting": "[2]; Cohort 3, 750 mg b.i.d.", "value": 3.2, "unit": "log"}, {"measurement": "mean log HCV RNA decrease on Day 4", "setting": "[2]; Cohort 4, 1,500 mg once a day", "value": 3.6, "unit": "log"}, {"measurement": "mean reductions in plasma HCV RNA", "setting": "[2]; across the four VX-222 dose groups", "value": "greater than 3 log10"}, {"measurement": "severe or serious events", "setting": "[3]; 250, 500 or 750 mg b.i.d. for 3 days, genotype 1 chronic hepatitis C subjects", "value": "no reported severe or serious events"}, {"measurement": "VX-222 exposures versus dose", "setting": "[3]; 250-750 mg BID and 1500 mg QD, FIG. 7", "value": "increased with doses in an approximately proportional manner"}, {"measurement": "severe or serious adverse events", "setting": "[3]; [5]", "value": "no severe or serious adverse events were reported"}, {"measurement": "tolerability", "setting": "[3]; [5]", "value": "well-tolerated"}, {"measurement": "AUC(0-t)", "setting": "[3]; [6]", "value": 11700, "unit": "ng·h/mL"}, {"measurement": "concentration at 12 h", "setting": "[3]; [6]", "value": 858, "unit": "ng/mL"}, {"measurement": "Cmax", "setting": "[3]; [6]", "value": 1810, "unit": "ng/mL"}, {"measurement": "Tmax", "setting": "[3]; 250 mg, 250 mg b.i.d., Day 1, HCV infected subjects, read-out: tmax Median", "value": 6, "unit": "h"}, {"measurement": "AUC(0-t)", "setting": "[3]; [7]", "value": 19500, "unit": "ng·h/mL"}, {"measurement": "concentration at 12 h", "setting": "[3]; [7]", "value": 728, "unit": "ng/mL"}, {"measurement": "Cmax", "setting": "[3]; [7]", "value": 2960, "unit": "ng/mL"}, {"measurement": "Tmax", "setting": "[3]; 250 mg, 250 mg b.i.d., Day 3, HCV infected subjects, read-out: tmax Median", "value": 4, "unit": "h"}, {"measurement": "AUC(0-t)", "setting": "[3]; [8]", "value": 22900, "unit": "ng·h/mL"}, {"measurement": "concentration at 12 h", "setting": "[3]; [8]", "value": 767, "unit": "ng/mL"}, {"measurement": "Cmax", "setting": "[3]; [8]", "value": 4360, "unit": "ng/mL"}, {"measurement": "Tmax", "setting": "[3]; 500 mg, 500 mg b.i.d., Day 1, HCV infected subjects, read-out: tmax Median", "value": 3, "unit": "h"}, {"measurement": "AUC(0-t)", "setting": "[3]; [9]", "value": 29800, "unit": "ng·h/mL"}, {"measurement": "concentration at 12 h", "setting": "[3]; [9]", "value": 858, "unit": "ng/mL"}, {"measurement": "Cmax", "setting": "[3]; [9]", "value": 5040, "unit": "ng/mL"}, {"measurement": "Tmax", "setting": "[3]; 500 mg, 500 mg b.i.d., Day 3, HCV infected subjects, read-out: tmax Median", "value": 2.5, "unit": "h"}, {"measurement": "AUC(0-t)", "setting": "[3]; [10]", "value": 43600, "unit": "ng·h/mL"}, {"measurement": "concentration at 12 h", "setting": "[3]; [10]", "value": 1690, "unit": "ng/mL"}, {"measurement": "Cmax", "setting": "[3]; [10]", "value": 6520, "unit": "ng/mL"}, {"measurement": "Tmax", "setting": "[3]; 750 mg, 750 mg b.i.d., Day 1, HCV infected subjects, read-out: tmax Median", "value": 3, "unit": "h"}, {"measurement": "AUC(0-t)", "setting": "[3]; [11]", "value": 63000, "unit": "ng·h/mL"}, {"measurement": "concentration at 12 h", "setting": "[3]; [11]", "value": 1680, "unit": "ng/mL"}, {"measurement": "Cmax", "setting": "[3]; [11]", "value": 10300, "unit": "ng/mL"}, {"measurement": "Tmax", "setting": "[3]; 750 mg, 750 mg b.i.d., Day 3, HCV infected subjects, read-out: tmax Median", "value": 2, "unit": "h"}, {"measurement": "Tmax", "setting": "[3]; post dose, 250-750 mg BID and 1500 mg QD, FIG. 7, read-out: Tmax", "value": "2 to 6", "unit": "h"}, {"measurement": "half-life", "setting": "[3]; 250 mg b.i.d., Day 3, HCV infected subjects", "value": 4.1, "unit": "h"}, {"measurement": "half-life", "setting": "[3]; 500 mg b.i.d., Day 3, HCV infected subjects", "value": 4, "unit": "h"}, {"measurement": "half-life", "setting": "[3]; 750 mg b.i.d., Day 3, HCV infected subjects", "value": 3.5, "unit": "h"}]}
